# Earlier results in US20050209190A1, “Camptothecin complexes” (priority 2000, published 2005).
# What was measured:
# [1] = tested on: human colon cancer xenografts; details: mouse, in vivo
# [2] = administered intravenously; studies abandoned
# [3] = tested on: tumorigenic human cells; details: in vitro
# [4] = tested on: nontumorigenic human cells; details: in vitro
# [5] = tested on: human tumor xenografts
smiles,measurement,setting,value
"CC[C@@]1(O)C(=O)OCc2c1cc1n(c2=O)Cc2cc3cc4c(cc3nc2-1)OCO4 [10,11 MD, 10,11-Methylendioxy-20(S)-Camptothecin]",anticancer activity against human colon cancer xenografts,[1],high anticancer activity
CC[C@@](O)(C(=O)[O-])c1cc2n(c(=O)c1CO)Cc1cc3ccccc3nc1-2.[Na+] [CPT Na+],potency in clinical trials,[2],low potency
same,toxicity in clinical trials,[2],high toxicity
"CC[C@@]1(O)C(=O)OCc2c1cc1n(c2=O)Cc2cc3ccccc3nc2-1 [CPT, 20(S)-camptothecin]",effect on tumorigenic cells,[3],cytotoxic
same,solubility in water,,insoluble in water
same,effect on nontumorigenic cells,[4],cytostatic
"CC[C@@]1(O)C(=O)OCc2c1cc1n(c2=O)Cc2cc3c(N)cccc3nc2-1 [Example 9AC, 9-Amino-20(S)-Camptothecin]",anticancer activity against human colon cancer xenografts,[1],high anticancer activity
"CC[C@@]1(O)C(=O)OCc2c1cc1n(c2=O)Cc2cc3c([N+](=O)[O-])cccc3nc2-1 [Example 9NC, 9-nitrocamptothecin]",growth of human tumor xenografts,[5]; immunodeficient nude mice,inhibited the growth
same,activity against human tumor xenograft models,"[5]; mouse, in vivo",high activity
same,regression of human tumors established as xenografts,[5]; nude mice,induced regression
